# According to US10500209B2, “Quinazolinones as bromodomain inhibitors” (Zenith Epigenetics Ltd., priority 2013, dated 2019):
# Columns and labels:
# [1] = biological target: T1, Brd4 bromodomain 1 (BRD4(1)) (Homo sapiens, UniProt O60885); test: Inhibition of tetra-acetylated histone H4 binding to BET bromodomains (TR-FRET); design: key: Active: Compounds with an IC50 value less than 30 μM were deemed to be active.; Not Active: Compounds with an IC50 value less than 30 μM were deemed to be active; conditions: first bromodomain of Brd4, tetra-acetylated histone H4 peptide
# T1 construct: made in house; host or cells: E. coli BL21(DE3)
# Procedure: Proteins were cloned and overexpressed with a N-terminal 6×His tag, then purified by nickel affinity followed by size exclusion chromatography. Briefly, E. coli BL21(DE3) cells were transformed with a recombinant expression vector encoding N-terminally Nickel affinity tagged bromodomains from Brd2, Brd3, Brd4. Cell cultures were incubated at 37° C. with shaking to the appropriate density and induced overnight with IPTG. The supernatant of lysed cells was loaded onto Ni-IDA column for purification. Eluted protein is pooled, concentrated and further purified by size exclusion chromatography. Fractions representing monomeric protein were pooled, concentrated, aliquoted, and frozen at −80° C. for use in subsequent experiments.
# Binding of tetra-acetylated histone H4 and BET bromodomains was confirmed by a Time Resolved Fluorescence Resonance Energy Transfer (TR-FRET) method. N-terminally His-tagged bromodomains (200 nM) and biotinylated tetra-acetylated histone H4 peptide (25-50 nM, Millipore) were incubated in the presence of Europium Cryptate-labeled streptavidin (Cisbio Cat. #610SAKLB) and XL665-labeled monoclonal anti-His antibody (Cisbio Cat. #61HISXLB) in a white 96 well microtiter plate (Greiner). For inhibition assays, serially diluted test compound was added to these reactions in a 0.2% final concentration of DMSO. Final buffer concentrations were 30 mM HEPES pH 7.4, 30 mM NaCl, 0.3 mM CHAPS, 20 mM phosphate pH 7.0, 320 mM KF, 0.08% BSA). After a 2-h incubation at room temperature, the fluorescence by FRET was measured at 665 and 620 nm by a SynergyH4 plate reader (Biotek). The binding inhibitory activity was shown by a decrease in 665 nm fluorescence relative to 620 nm. IC50 values were determined from a dose response curve.
# [2] = system: human AML MV-4-11 cells; test: Inhibition of cell proliferation in cancer cell lines (CellTiter Aqueous One); type: cell-based; design: key: Active: Compounds with an IC50 value less than 30 μM were deemed to be active.; Not Active: Compounds with an IC50 value less than 30 μM were deemed to be active; conditions: 72 h
# Procedure: MV4-11 cells: 96-well plates were seeded with 5×10^4 cells per well of exponentially growing human AML MV-4-11 (CRL-9591) cells and immediately treated with two-fold dilutions of test compounds, ranging from 30 μM to 0.2 μM. Triplicate wells were used for each concentration, as well as a media only and three DMSO control wells. The cells and compounds were incubated at 37° C., 5% CO2 for 72 h before adding 20 μL of the CellTiter Aqueous One Solution (Promega) to each well and incubating at 37° C., 5% CO2 for an additional 3-4 h. The absorbance was taken at 490 nm in a spectrophotometer and the percentage of proliferation relative to DMSO-treated cells was calculated after correction from the blank well. IC50 were calculated using the GraphPad Prism software.
melting point,FRET activity BRD4(1) [1],Cell Proliferation activity (IC50 < 30 μM) [2],Structure (SMILES)
285 °C (dec.),–,–,"COc1cnc(-c2nc3cc(OC)cc(OC)c3c(=O)[nH]2)c(N[C@H]2CC[C@@H](NC(=O)C(C)C)CC2)c1 [Example 38, N-(cis-4-((2-(5,7-Dimethoxy-4-oxo-3,4-dihydroquinazolin-2-yl)-5-methoxypyridin-3-yl)amino)cyclohexyl)isobutyramide]"
214 to 215 °C,Active,–,"COc1ccc(-c2nc3cc(OC)cc(OC)c3c(=O)[nH]2)c(NC2CCN(C)C2)c1 (stereo not drawn) [Example 4, 5,7-Dimethoxy-2-(4-methoxy-2-((1-methylpyrrolidin-3-yl)amino)phenyl)quinazolin-4(3H)-one]"
281 to 283 °C,Active,–,"COc1cc(OC)c2c(=O)[nH]c(-c3ccc(Cl)cc3NC3CCN(C(=O)C(C)C)CC3)nc2c1 [Example 34, 2-(4-Chloro-2-((1-isobutyrylpiperidin-4-yl)amino)phenyl)-5,7-dimethoxyquinazolin-4(3H)-one]"
231 to 232 °C,Active,–,"COc1ccc(-c2nc3cc(OC)cc(OC)c3c(=O)[nH]2)c(NCCN2CCCCC2)c1 [Example 12, 5,7-Dimethoxy-2-(4-methoxy-2-((2-(piperidin-1-yl)ethyl)amino)-phenyl)quinazolin-4(3H)-one]"
–,Active,–,"COc1ccc(-c2nc3cc(OC)cc(OC)c3c(=O)[nH]2)c(NC2CCC(C)(C)CC2)c1 [Example 29, 2-(2-((4,4-Dimethylcyclohexyl)amino)-4-methoxyphenyl)-5,7-dimethoxyquinazolin-4(3H)-one]"
121 to 122 °C,Active,–,"COc1cc(OC)c2c(=O)[nH]c(-c3ncccc3NCCCNC(C)C)nc2c1 [Example 43, 2-(3-((3-(Isopropylamino)propyl)amino)pyridin-2-yl)-5,7-dimethoxyquinazolin-4(3H)-one]"
234 to 235 °C,Active,–,"COc1ccc(-c2nc3cc(OC)cc(OC)c3c(=O)[nH]2)c(NCCCN2CCOCC2)c1 [Example 13, 5,7-Dimethoxy-2-(4-methoxy-2-((3-morpholinopropyl)amino)-phenyl)quinazolin-4(3H)-one]"
265 to 266 °C,Active,–,"COc1cc(OC)c2c(=O)[nH]c(-c3ncccc3NC3CCN(C(N)=O)CC3)nc2c1 [Example 54, 4-((2-(5,7-Dimethoxy-4-oxo-3,4-dihydroquinazolin-2-yl)pyridin-3-yl)amino)piperidine-1-carboxamide]"
–,Active,–,"COc1ccc(-c2nc3cc(OC)cc(OC)c3c(=O)[nH]2)c(C(=O)N2CCN(C)CC2)c1 [Example 2, 5,7-Dimethoxy-2-(4-methoxy-2-(4-methylpiperazine-1-carbonyl)phenyl) quinazolin-4(3H)-one]"
256 to 257 °C,Active,Not Active,"COc1cc(OC)c2c(=O)[nH]c(-c3ncccc3N[C@H]3CC[C@@H](C(=O)NC(C)C)CC3)nc2c1 [Example 63, cis-4-((2-(5,7-Dimethoxy-4-oxo-3,4-dihydroquinazolin-2-yl)pyridin-3-yl)amino)-N-isopropylcyclohexane-1-carboxamide]"
168 to 170 °C,Active,–,"COc1cc(OC)c2c(=O)[nH]c(-c3ncccc3NCCN3CCOCC3)nc2c1 [Example 49, 5,7-Dimethoxy-2-(3-((2-morpholinoethyl)amino)pyridine-2-yl)quinazolin-4(3H)-one]"
186 to 188 °C,Active,–,"COc1cc(OC)c2c(=O)[nH]c(-c3ncccc3NC3CCN(C)CC3)nc2c1 [Example 44, 5,7-Dimethoxy-2-(3-((1-methylpiperidin-4-yl)amino)pyridine-2-yl)quinazolin-4(3H)-one]"
237 to 238 °C,Active,–,"COc1cncc2nc(-c3ncccc3NC3CCN(C(C)C)CC3)[nH]c(=O)c12 [Example 58, 2-(3-((1-Isopropylpiperidin-4-yl)amino)pyridin-2-yl)-5-methoxypyrido[3,4-d]pyrimidin-4(3H)-one]"
–,Active,–,"COc1cc(OC)c2c(=O)[nH]c(-c3cccc(NC4CCN(C(C)C)CC4)c3)nc2c1 [Example 27, 2-(3-((1-Isopropylpiperidin-4-yl)amino)phenyl)-5,7-dimethoxyquinazolin-4(3H)-one]"
264 to 265 °C,Active,–,"COc1ccc(-c2nc3cc(OC)cc(OC)c3c(=O)[nH]2)c(NCC2CCN(C)CC2)c1 [Example 6, 5,7-Dimethoxy-2-(4-methoxy-2-(((1-methylpiperidin-4-yl)methyl)amino)phenyl) quinazolin-4(3H)-one]"
276 to 278 °C,Active,–,"COc1cc(OC)c2c(=O)[nH]c(-c3ncccc3N[C@H]3CC[C@@H](C(=O)N(C)C)CC3)nc2c1 [Example 53, cis-4-((2-(5,7-Dimethoxy-4-oxo-3,4-dihydroquinazolin-2-yl)pyridin-3-yl)amino)-N,N-dimethylcyclohexane-1-carboxamide]"
226 to 228 °C,Active,–,"COc1ccc(-c2nc3cc(OC)cc(OC)c3c(=O)[nH]2)c(NCCN2CCCC2)c1 [Example 11, 5,7-Dimethoxy-2-(4-methoxy-2-((2-(pyrrolidin-1-yl)ethyl)amino)phenyl)quinazolin-4(3H)-one]"
210 to 212 °C,Active,–,"COc1ccc(-c2nc3cc(OC)cc(OC)c3c(=O)[nH]2)c(NCCN2CCNCC2)c1 [Example 24, 5,7-Dimethoxy-2-(4-methoxy-2-((2-(piperazin-1-yl)ethyl)amino)phenyl)quinazolin-4(3H)-one]"
–,Active,–,"COc1ccc(-c2nc3cc(OC)cc(OC)c3c(=O)[nH]2)c(NC2CCN(Cc3ccccc3)CC2)c1 [Example 35, 2-(2-((1-Benzylpiperidin-4-yl)amino)-4-methoxyphenyl)-5,7-dimethoxyquinazolin-4(3H)-one]"
157 to 159 °C,Active,–,"COc1cc(OC)c2c(=O)[nH]c(-c3ncccc3NCC3CCN(C)C3)nc2c1 (stereo not drawn) [Example 41, 5,7-Dimethoxy-2-(3-(((1-methylpyrrolidin-3-yl)methyl)amino)pyridin-2-yl)quinazolin-4(3H)-one]"
191 to 193 °C,Active,–,"COc1cnc(-c2nc3cc(OC)cc(OC)c3c(=O)[nH]2)c(NC2CCN(C)CC2)c1 [Example 40, 5,7-Dimethoxy-2-(5-methoxy-3-((1-methylpiperidin-4-yl)amino)pyridin-2-yl)quinazolin-4(3H)-one]"
223 to 225 °C,Active,–,"COc1cc(OC)c2c(=O)[nH]c(-c3ncccc3NC3CCN(C(C)(C)CO)CC3)nc2c1 [Example 68, 2-(3-((1-(1-Hydroxy-2-methylpropan-2-yl)piperidin-4-yl)amino)pyridin-2-yl)-5,7-dimethoxyquinazolin-4(3H)-one]"
217 to 218 °C,–,–,"COc1ccc(-c2nc3cc(OC)cc(OC)c3c(=O)[nH]2)c(N(C)C2CCN(C)CC2)c1 [Example 5, 5,7-Dimethoxy-2-(4-methoxy-2-(methyl(1-methylpiperidin-4-yl)amino)phenyl) quinazolin-4(3H)-one]"
267 to 269 °C,Active,–,"COc1cc(OC)c2c(=O)[nH]c(-c3ccccc3NC3CCN(C(C)C)CC3)nc2c1 [Example 10, 2-(2-((1-Isopropylpiperidin-4-yl)amino)phenyl)-5,7-dimethoxyquinazolin-4(3H)-one]"
–,Active,–,"COc1cc(N)cc2nc(-c3ncccc3NC3CCN(C(C)C)CC3)[nH]c(=O)c12 [Example 65, 7-amino-2-(3-((1-Isopropylpiperidin-4-yl)amino)pyridin-2-yl)-5-methoxyquinazolin-4(3H)-one]"
265 °C (dec.),–,–,"COc1cc(OC)c2c(=O)[nH]c(-c3ccc(Cl)cc3NC3CCN(C(C)C)CC3)nc2c1 [Example 33, 2-(4-Chloro-2-((1-isopropylpiperidin-4-yl)amino)phenyl)-5,7-dimethoxyquinazolin-4(3H)-one]"
